# Measured values as given in publication PMC3914206.
# Columns and labels:
# Type in all cases: binding
# Conditions in all cases: Compound Concentration 10 µM
# panel of 442 kinases [1] = molecular target: T1, panel of 442 kinases (Homo sapiens, UniProt P41240)
# T1 construct: purchased KINOMEscan
# Description: (§1) We assessed the selectivity of members of this scaffold using the KINOMEscan methodology across a near comprehensive panel of 442 kinases [[18,27]].
# panel of 442 kinases [2] = molecular target: T2, panel of 442 kinases (Homo sapiens, UniProt Q16584)
# T2 construct: purchased KINOMEscan
# Description: as §1
# panel of 442 kinases [3] = molecular target: T3, panel of 442 kinases (Homo sapiens, UniProt Q8N752)
# T3 construct: purchased KINOMEscan
# T3 sequence (Q8N752 1-337): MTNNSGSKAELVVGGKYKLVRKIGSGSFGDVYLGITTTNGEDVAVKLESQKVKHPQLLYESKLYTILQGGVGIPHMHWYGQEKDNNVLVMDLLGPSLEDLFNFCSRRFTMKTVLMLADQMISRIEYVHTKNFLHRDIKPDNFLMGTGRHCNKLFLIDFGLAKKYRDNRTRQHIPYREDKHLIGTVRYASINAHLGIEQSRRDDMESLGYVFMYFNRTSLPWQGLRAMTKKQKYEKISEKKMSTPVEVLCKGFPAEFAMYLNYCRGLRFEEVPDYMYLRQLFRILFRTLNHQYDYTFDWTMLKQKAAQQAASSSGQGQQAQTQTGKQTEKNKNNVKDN
# Description: as §1
# T1 sequence (P41240 whole entry): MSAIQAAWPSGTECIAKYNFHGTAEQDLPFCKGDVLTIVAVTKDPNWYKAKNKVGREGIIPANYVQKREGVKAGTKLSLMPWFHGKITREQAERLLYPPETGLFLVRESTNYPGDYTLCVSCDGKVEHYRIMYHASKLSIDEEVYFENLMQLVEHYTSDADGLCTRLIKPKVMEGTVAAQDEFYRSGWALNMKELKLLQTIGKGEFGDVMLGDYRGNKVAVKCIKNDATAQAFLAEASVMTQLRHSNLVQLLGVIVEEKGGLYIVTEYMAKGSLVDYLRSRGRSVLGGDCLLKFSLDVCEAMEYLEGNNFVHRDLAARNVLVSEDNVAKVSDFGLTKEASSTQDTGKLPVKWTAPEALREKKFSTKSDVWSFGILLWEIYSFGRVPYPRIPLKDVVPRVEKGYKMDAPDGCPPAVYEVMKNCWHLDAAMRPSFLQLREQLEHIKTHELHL
# T2 sequence (Q16584 whole entry): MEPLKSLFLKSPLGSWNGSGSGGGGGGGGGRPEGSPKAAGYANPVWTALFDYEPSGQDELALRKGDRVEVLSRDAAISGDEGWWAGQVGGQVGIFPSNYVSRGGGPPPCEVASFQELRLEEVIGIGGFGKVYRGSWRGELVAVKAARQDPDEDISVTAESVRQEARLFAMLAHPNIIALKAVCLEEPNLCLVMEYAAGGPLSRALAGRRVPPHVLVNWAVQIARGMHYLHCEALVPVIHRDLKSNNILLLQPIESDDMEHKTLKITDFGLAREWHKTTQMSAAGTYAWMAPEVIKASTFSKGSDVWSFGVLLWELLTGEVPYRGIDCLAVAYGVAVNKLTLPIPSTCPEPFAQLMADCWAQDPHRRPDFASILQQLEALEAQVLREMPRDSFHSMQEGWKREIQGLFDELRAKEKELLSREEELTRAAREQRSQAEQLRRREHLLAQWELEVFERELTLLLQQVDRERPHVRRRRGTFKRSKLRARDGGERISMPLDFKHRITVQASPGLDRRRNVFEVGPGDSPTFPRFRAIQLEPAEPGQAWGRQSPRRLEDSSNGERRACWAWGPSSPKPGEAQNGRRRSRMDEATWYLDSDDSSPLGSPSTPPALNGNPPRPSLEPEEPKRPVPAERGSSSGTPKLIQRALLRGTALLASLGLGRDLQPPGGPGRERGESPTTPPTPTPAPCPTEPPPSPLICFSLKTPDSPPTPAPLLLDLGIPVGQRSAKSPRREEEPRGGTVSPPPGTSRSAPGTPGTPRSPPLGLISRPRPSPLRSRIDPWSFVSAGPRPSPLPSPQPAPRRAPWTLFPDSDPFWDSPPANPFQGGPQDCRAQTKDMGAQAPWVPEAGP
structure (smiles),measurement,setting,value
COc1cc(C(=O)N2CCC(N3CCN(C)CC3)CC2)ccc1Nc1ncc2c(n1)N(C)c1ccccc1C(=O)N2C [15 (LRRK2-IN-1)],KINOMEscan: CSK,panel of 442 kinases [1],90
same,KINOMEscan: MLK3,panel of 442 kinases [2],100
same,KINOMEscan: CSNK1A1L,panel of 442 kinases [3],100
COc1cc(C(=O)N2CCC(N3CCN(C)CC3)CC2)ccc1Nc1ncc2c(n1)N1CCc3cccc(c31)C(=O)N2C [Compound 24],KINOMEscan: CSK,panel of 442 kinases [1],75
"COc1cc(C(=O)N2CCC(N3CCN(C)CC3)CC2)ccc1Nc1ncc2c(n1)N(C1CCCC1)c1ccccc1C(=O)N2C [Compound 25, 11-cyclopentyl-2-((2-methoxy-4-(4-(4-methylpiperazin-1-yl)piperidine-1-carbonyl)phenyl)amino)-5-methyl-5H-benzo[e]pyrimido[5,4-b][1,4]diazepin-6(11H)-one]",KINOMEscan: CSK,panel of 442 kinases [1],74
same,KINOMEscan: MLK3,panel of 442 kinases [2],100
same,KINOMEscan: CSNK1A1L,panel of 442 kinases [3],100
CCOc1cc(C(=O)N2CCC(N3CCN(C)CC3)CC2)ccc1Nc1ncc2c(n1)N(C1CCCC1)c1ccccc1C(=O)N2C [Compound 26],KINOMEscan: CSK,panel of 442 kinases [1],100
same,KINOMEscan: MLK3,panel of 442 kinases [2],100
same,KINOMEscan: CSNK1A1L,panel of 442 kinases [3],99
